{"source": "patent US12631620B2", "about": "“Methods of generating organoids for high throughput screening of drugs” (Yissum Research Development Company of the Hebrew …, priority 2019, dated 2026)", "system": "HepG2/C3A organoids", "test": "Real-time oxygen uptake toxicity (TC50, time to onset, lowest exposure level) in differentiated HepG2/C3A organoids", "assay_type": "cell-based, human", "settings": "for TC50: oxygen uptake", "description": "A suspension of HepG2/C3A cells and CPOx-50-RuP beads (Colibri Photonics, Germany) were suspended in 2.5 mg/ml rat tail collagen type I (Corning, USA) at a cell density of 7×10^5 cells/μl. A volume of 1.1 μl of the gel-imbedded mixture was injected into each microwell and left to form spontaneously until their metabolic activity stabilized around day 4.\nFifty-micrometer-diameter polystyrene microbeads were loaded with ruthenium-phenanthroline-based phosphorescence dye (CPOx-50-RuP). […] Oxygen acts as a quencher, leading to a decrease in decay time and signal intensity with increasing concentration. The present inventors chose to measure decay time, rather than signal intensity, as it is not sensitive to changes in probe concentration or excitation intensity over the course of the experiment. The signal was measured using the OPAL system (Colibri Photonics, Germany) that comprises of a control module, 532 nm LED excitation source, and a photomultiplier (PMT) detector mounted on the ocular of an IX81 Olympus microscope (Olympus, Japan). A filter cube with 531/40 (Ex), 555, 607/70 (Em) was inserted in the optical light path during measurements. To accurately measure decay time, the present inventors chose phase modulation in which sinusoidal amplitude-modulated light is shifted in phase due to oxygen quenching. To overcome the superposition of in-phase background fluorescence that alters the phase of the detected signal, the present inventors used a novel 53.5 and 31.3 kHz two-frequency phase modulation that allowed to screen out the interference [Schmalzlin E., et al., 2005. Biophysical journal, 89: 1339-1345; Papkovsky, D. B. et al., 2004. Methods in enzymology, 381, 715-735; Ast, C., et al., 2012. Sensors (Basel), 12: 7015-7032; Engelhard, S., et al., 2006. Analytical and bioanalytical chemistry, 384: 1107-1112; Prill, D. et al., 2016, Archives of toxicology, 90: 1181-1191]. Measurements were carried out by averaging five consecutive 4-s exposures. Measurements were taken every 15 minutes. Under similar conditions, 28 days of measurement of organoids was done with no apparent phototoxicity, signal drift, or relevant loss of signal intensity (Schmalzlin E., et al., 2005. Biophysical journal, 89: 1339-1345). Assessment of Cellular Toxicity and Time to Onset\nOrganoids were exposed to different concentrations of compounds dissolved in culture medium. Cell viability was determined by oxygen uptake following 24 hours of exposure unless otherwise noted. TC50 concentrations were determined using MATLAB by sigmoidal curve fitting (Wenner, M. M. et al., 2011, J Appl Physiol (1985), 111: 1703-1709; Prentice, R. L. et al., 1976, Biometrics, 32: 761-768). Time to onset was analyzed by MATLAB based on LPF and trend assessment.\nTo find the asymptotic concentration for which damage occurs only at infinite exposure time, the present inventors used a previously developed model for accumulative drug exposure (El-Kareh et al., 2000. Neoplasia, 2: 325-338; Currie, G. M. 2018. J Nucl Med Technol, DOI: 10.2967/jnmt.117.199588). The model is based on the steady-state dynamics of flux accumulation, using a linear first-order approximation of the cell membrane. The flux behavior is described by\nwhere J(C) is the concentration dependent flux, Jmin is the minimal flux that will cause an effect, t is time of exposure and |τ is a drug-cell specific constant accounting reaction dynamics (Gowrishankar et al., 2003. Proceedings of the National Academy of Sciences of the United States of America, 100: 3203-3208; Kotnik T. et al., 2000. IEEE Trans Biomed Eng, 47: 1074-1081). In the present case, t is the Time to Onset (TTO) of damage creating a bi-asymptotic behavior. This adapted model is used to describe lowest exposure level (LEL) under first order, steady state assumptions, as\nReal-time oxygen measurements were performed optically using on-chip lifetime-based luminescence quenching (LBLQ). […]", "note": "Where “and” joins values, the source holds several entries; their conditions need not be identical. Equal entries are not always repeated.", "data": [{"molecule": "Cc1cn([C@H]2C=C[C@@H](CO)O2)c(=O)[nH]c1=O", "note": "[Stavudine]", "values": [{"measurement": "TC50", "setting": "at 24 hours", "value": 4.3, "unit": "mM"}, {"measurement": "TC50", "setting": "at 42 hours", "value": "1.7 mM and 1.7 ± 0.4 mM"}, {"measurement": "Time to onset (TTO) of response", "setting": "dose-dependent range over concentrations tested", "value": "10 to 29", "unit": "h"}, {"measurement": "lowest exposure level (LEL)", "setting": "horizontal asymptote, onset of damage at infinite time, ± standard error of curve fit", "value": "4 ± 1", "unit": "µM"}]}]}
